Reference: patent publication US10207984B2, “Cyclopropyl derivatives and methods of use” (Emory University, priority 2011, dated 2019)
Where a name gives a salt, the structure may show the parent alone. Read-outs that look alike come from different tables or passages of the source.

How the values were obtained:
[1] = target: T1, norepinephrine transporters (NET) (Rattus norvegicus, UniProt Q9WTR4); assay: NET binding, displacement of [3H]nisoxetine in rat brain membranes
T1 construct: Whole rat brains (minus cerebellum) are homogenized; from tissue; host or cells: rat whole brain minus cerebellum, membranes
Protocol: (§1) Binding of analogs at norepinephrine transporters (NET) was determined by displacement of [^3H]nisoxetine binding. […] The membranes are resuspended in nisoxetine assay buffer (300 mM NaCl, 5 mM KCl, 50 mM Tris-HCl, pH 7.4) and centrifuged again before final resuspension in volumes of buffer. Assay tubes contain 750 μl of brain membranes, [^3H]nisoxetine (0.7 nM) together with unlabeled drugs dissolved in nisoxetine assay buffer to a final volume of 1 ml. Tubes are incubated for 40 min at 25° C., and the reaction is terminated by rapid filtration with 3×4 mL of cold Tris buffer through Whatman GF/B glass fiber filters which have been pre-soaked in Tris buffer containing 0.1% BSA for at least 1 h. Non-specific binding is determined in the presence of 1 μM desipramine. In [^3H]citalopram and [^3H]nisoxetine binding assays, radioactivity is determined by liquid scintillation spectrophotometry (efficiency: 50%) after eluting filters overnight in 5 mL of Ecolite scintillation fluid (ICN). IC50 values are calculated from displacement curves using 7-10 concentrations of unlabeled analogs. […] For [^3H]paroxetine and [^3H]nisoxetine binding assays, Ki values are calculated using the Cheng-Prusoff equation.

[2] = target: T2, 5-HT transport (SERT) sites (Rattus norvegicus, UniProt P31652); assay: SERT binding, displacement of [3H]citalopram in rat frontal cortex membranes
T2 construct: Tissue is obtained from frozen rat brains as described above; from tissue; host or cells: rat frontal cortex membranes (frozen rat brains)
Protocol: Affinities of analogs at 5-HT transport (SERT) sites are determined by displacement of [^3H] citalopram binding in membranes from rat frontal cortex. […] Assay tubes contain 50 mg (original wet weight) of membranes, 0.4 nM [^3H]citalopram, and various concentrations of unlabeled drugs dissolved in citalopram assay buffer in a final volume of 2 ml. Tubes are incubated for 60 min at 25° C., and the reaction is terminated by rapid filtration with 3×4 mL of cold Tris buffer through Whatman GF/B glass fiber filters pre-soaked in Tris buffer containing 0.1% BSA for at least 1 h. Non-specific binding is determined in the presence of 10 μM fluoxetine.
as §1

[3] = target: T3, dopamine transport (DAT) sites (Rattus norvegicus, UniProt P23977); assay: DAT binding, displacement of [125I]RTI-55 in rat striatum membranes
T3 construct: from tissue; host or cells: Sprague-Dawley rat striatum membranes
Protocol: Frozen brains from Sprague-Dawley rats are obtained commercially and striata are dissected on ice. […] Tubes are incubated for 50 min at 25° C., and the reaction is terminated by rapid filtration with 3-5 ml of cold Tris buffer through Whatman GF/B glass fiber filters pre-soaked in Tris buffer containing 0.1% BSA for at least 1 h. Non-specific binding is determined in the presence of 1 μMWF-23. […]

Log-P (Table 1) = type: physicochemical
SNL rats = assay: Mechanical allodynia (paw withdrawal threshold) in L5/L6 spinal nerve ligation (SNL) model of neuropathic pain; type: in vivo, rat; settings: for anti-allodynic effect (in words): i.t., clonidine 10 μg, HD-283 30 μg, HD-286 and HD-288 up to 3 μg
Text: A 3 cm incision was made in the back using the iliac crests as a midpoint. An incision was then made in the underlying muscle, which was then separated by both sharp and blunt dissection to expose the left transverse process of the fifth lumbar vertebra. The transverse process was removed using bone microrongeurs, and the fifth lumbar nerve was exteriorized from underneath the spinal column using a small metal hook and ligated using 4.0 silk suture with sufficient pressure to cause the nerve to bulge on each side of the ligature. The sixth lumbar nerve was exteriorized from underneath the iliac bone at the sciatic notch and ligated in a similar manner. All muscle layers were sutured using 4.0 chromic gut, the skin was sutured using 4.0 nylon suture.
The animal is placed in a stereotaxic frame to immobilize the head under pentobarbital anesthesia. The animal's body is lifted and supported to render the spinal column straight and level and the animal's head is placed downward such the top of the skull forms a 90° angle with the spinal column. A small incision is placed at the back of the neck and the underlying muscles are blunt dissected to reveal the atlanto-occipital membrane. A small incision is placed in the atlanto-occipital membrane through which a 32 ga polyethylene catheter is inserted that is 8 cm in length. The catheter is anchored to the neck muscles with 4.0 silk suture and the exterior wounds are closed with 4.0 nylon suture.
All compounds were dissolved in 0.9% (wt/vol) saline, pH 7.4 and administered through the intrathecal catheter in a volume of 5 μl, followed by 15 μl of 0.9% saline to flush the catheter.
Paw withdrawal threshold was determined before and at selected time points following intrathecal drug administration using calibrated von Frey filaments. The animals are placed in elevated Plexiglas chambers with wire mesh floors and acclimated for a minimum of 30 minutes. Beginning with a filament calibrated to bend with a force of 2 g of pressure, the filament is applied to the plantar surface of the left hindpaw with sufficient force to bend slightly and left in place for 8 seconds or until the animal withdraws it's paw from the filament. In the absence of a paw withdrawal, the next highest calibrated filament is applied in a similar manner. In the presence of a paw withdrawal, the next lowest calibrated filament is applied. This up-down method continues until 4 responses are recorded after an initial positive response. The paw withdrawal threshold is calculated using Dixon non-parametric statistics.
The potency and efficacy of novel SNRT analogs in reversing mechanical hypersensitivity were determined in the L5/L6 spinal nerve ligation (SNL) model of neuropathic pain in rats. Compounds were administered intrathecal (i.t.) and the effect on paw withdrawal threshold was assessed at various time points following treatment.

[4] = [3H]nisoxetine displacement, rat brain membranes, Ki by Cheng-Prusoff, read-out: NET
[5] = [3H]citalopram displacement, rat frontal cortex membranes, Ki by Cheng-Prusoff, read-out: SERT
[6] = [125I]RTI-55 displacement, rat striatum membranes, reported as IC50, read-out: DAT

T1 sequence (Q9WTR4 1-597): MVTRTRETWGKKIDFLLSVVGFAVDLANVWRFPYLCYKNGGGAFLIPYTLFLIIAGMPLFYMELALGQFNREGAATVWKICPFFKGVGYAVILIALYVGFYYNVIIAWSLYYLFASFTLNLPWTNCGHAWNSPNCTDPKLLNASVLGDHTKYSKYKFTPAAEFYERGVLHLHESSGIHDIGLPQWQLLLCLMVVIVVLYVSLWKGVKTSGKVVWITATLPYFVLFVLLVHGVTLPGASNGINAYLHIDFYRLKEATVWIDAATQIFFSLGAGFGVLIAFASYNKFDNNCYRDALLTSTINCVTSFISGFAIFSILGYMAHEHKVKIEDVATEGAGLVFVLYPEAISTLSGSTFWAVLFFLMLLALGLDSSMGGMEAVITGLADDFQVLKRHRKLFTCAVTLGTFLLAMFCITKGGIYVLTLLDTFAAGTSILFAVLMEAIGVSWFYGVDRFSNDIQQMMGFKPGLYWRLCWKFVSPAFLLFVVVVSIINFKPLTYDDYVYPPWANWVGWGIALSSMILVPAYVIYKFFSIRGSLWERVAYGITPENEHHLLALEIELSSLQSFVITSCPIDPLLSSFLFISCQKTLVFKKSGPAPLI
T3 sequence (P23977 whole entry): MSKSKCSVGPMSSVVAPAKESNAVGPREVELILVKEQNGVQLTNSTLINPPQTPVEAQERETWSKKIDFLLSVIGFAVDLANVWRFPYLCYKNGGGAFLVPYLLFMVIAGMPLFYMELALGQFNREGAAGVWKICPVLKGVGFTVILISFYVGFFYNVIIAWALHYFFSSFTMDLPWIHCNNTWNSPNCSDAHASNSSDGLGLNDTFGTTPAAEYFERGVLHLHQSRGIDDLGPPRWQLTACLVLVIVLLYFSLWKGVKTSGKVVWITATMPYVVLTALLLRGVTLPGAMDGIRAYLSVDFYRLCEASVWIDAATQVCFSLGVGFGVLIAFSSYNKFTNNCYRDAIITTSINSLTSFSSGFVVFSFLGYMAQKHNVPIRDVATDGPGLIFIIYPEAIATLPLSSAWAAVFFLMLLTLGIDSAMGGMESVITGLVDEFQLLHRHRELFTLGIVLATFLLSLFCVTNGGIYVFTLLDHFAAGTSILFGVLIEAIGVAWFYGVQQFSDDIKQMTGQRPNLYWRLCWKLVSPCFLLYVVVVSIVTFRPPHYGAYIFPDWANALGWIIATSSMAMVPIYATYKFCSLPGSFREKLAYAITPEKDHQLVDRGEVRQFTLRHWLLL
T2 sequence (P31652 whole entry): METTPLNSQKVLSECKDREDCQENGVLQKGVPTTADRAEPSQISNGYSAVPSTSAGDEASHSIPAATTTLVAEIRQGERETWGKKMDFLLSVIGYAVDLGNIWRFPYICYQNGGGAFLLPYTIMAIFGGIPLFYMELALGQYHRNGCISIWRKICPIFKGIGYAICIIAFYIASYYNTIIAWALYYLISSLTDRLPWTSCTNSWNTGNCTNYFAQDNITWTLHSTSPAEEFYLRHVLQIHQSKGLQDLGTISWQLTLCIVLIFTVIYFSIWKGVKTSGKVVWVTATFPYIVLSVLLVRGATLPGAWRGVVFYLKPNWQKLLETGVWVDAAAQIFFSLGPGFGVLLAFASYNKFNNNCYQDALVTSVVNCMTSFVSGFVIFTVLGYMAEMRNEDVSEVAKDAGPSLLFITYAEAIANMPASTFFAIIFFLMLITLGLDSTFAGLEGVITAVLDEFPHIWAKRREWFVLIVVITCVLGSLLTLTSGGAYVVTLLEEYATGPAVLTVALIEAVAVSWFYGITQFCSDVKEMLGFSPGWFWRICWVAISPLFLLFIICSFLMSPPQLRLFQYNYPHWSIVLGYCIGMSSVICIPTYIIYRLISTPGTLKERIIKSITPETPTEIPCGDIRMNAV

| Compound | Ki [1, 4] [nM] | Ki [2, 5] [nM] | IC50 [3, 6] [nM] | Log-P (Log-P (Table 1)) | also measured |
| --- | --- | --- | --- | --- | --- |
| CNCC1CC1(C(=O)OC)c1ccccc1 (racemic) [HD-284, Methyl 2-((methylamino)methyl)-1-phenylcyclopropanecarboxylate] | 152 ± 65 | 157 ± 4.8 | 1780 ± 87 | 1.65 | – |
| CNCC1CC1(C(=O)OC)c1ccc(Br)cc1 (racemic) [HD-285, Methyl 1-(4-bromophenyl)-2-((methylamino)methyl)cyclopropanecarboxylate] | 3.7 ± 1.4 | 210 ± 10 | 1460 ± 470 | 2.51 | – |
| CNCC1CC1(C(=O)OC)c1ccc(-c2ccccc2)cc1 (racemic) [HD-286, Methyl 1-([1,1′-biphenyl]-4-yl)-2-((methylamino)methyl)cyclopropanecarboxylate hydrochloride] | 315 ± 100 | 4.85 ± 1 | – | 3.54 | anti-allodynic effect (in words) (SNL rats): significantly lower efficacy |
| CNCC1CC1(C(=O)OC)c1ccc2ccccc2c1 (racemic) [HD-287, Methyl 2-((methylamino)methyl)-1-(naphthalen-2-yl)cyclopropanecarboxylate hydrochloride] | 3.49 ± 0.64 | – | – | 2.82 | Ki [2]: 6.58 ± 0.71 nM; IC50 [3]: 177 ± 44 nM |
| CNCC1CC1(C(=O)OC)c1ccc(Cl)c(Cl)c1 (racemic) [HD-288, Methyl 1-(3,4-dichlorophenyl)-2-((methylamino)methyl)cyclopropanecarboxylate] | 0.8 ± 0.02 | 5.6 ± 0.39 | – | 2.95 | PWT after treatment (SNL rats; 3 μg i.t.): 24.9 ± 2.5 g; PWT before treatment (baseline) (SNL rats; before i.t. drug): 2.9 ± 0.4 g; anti-allodynic A50 (SNL rats; i.t. administration): 0.6 ± 0.3 µg; anti-allodynic effect (in words) (SNL rats): significantly greater than clonidine |
| CNCC1CC1(C(=O)OC)c1ccc(OC)c(OC)c1 (racemic) [HD-289, Methyl 1-(3,4-dimethoxyphenyl)-2-((methylamino)methyl)cyclopropanecarboxylate hydrochloride] | 8.62 ± 0.71 | 106 ± 21 | 1360 ± 198 | 1.31 | – |
| CNCC1CC1(C(=O)OC)c1ccccc1Cl (racemic) [HD-290, Methyl 1-(2-chlorophenyl)-2-((methylamino)methyl)cyclopropanecarboxylate] | 289 ± 24 | 329 ± 54 | 1840 ± 350 | 2.36 | – |
| Clc1cccc(Cl)c1N=C1NCCN1 [Clonidine, clonidine, reference compound] | – | – | – | – | anti-allodynic effect (in words) (SNL rats): reversed mechanical allodynia |
| CCN(CC)C(=O)C1(c2ccccc2)CC1CN (centres unmarked) [HD-283, Milnacipran, reference compound] | – | – | – | 1.91 | Ki [1]: 23.8 ± 1.7 nM; transporter selectivity (in words) ([1]; NET versus SERT binding): non-selective; Ki [2]: 35.1 ± 4.4 nM; IC50 [3]: 1970 ± 230 nM; anti-allodynic effect (in words) (SNL rats): reversed mechanical allodynia |
| CNC[C@H]1C[C@@]1(C(=O)OC)c1ccc(Br)cc1 [HD-324, (1S,2S)-methyl 1-(4-bromophenyl)-2-((methylamino)methyl)cyclopropanecarboxylate] | 44.9 ± 1 | 946 ± 71 | > 10000 | 2.51 | – |
| CNC[C@@H]1C[C@]1(C(=O)OC)c1ccc(Br)cc1 [HD-325, (1R,2R)-methyl 1-(4-bromophenyl)-2-((methylamino)methyl)cyclopropanecarboxylate] | 2.49 ± 0.07 | 47 ± 2.9 | 333 ± 79 | 2.51 | – |
| CNC[C@H]1C[C@@]1(C(=O)OC)c1ccc(Cl)c(Cl)c1 [HD-326, (1S,2S)-methyl 1-(3,4-dichlorophenyl)-2-((methylamino)methyl)cyclopropanecarboxylate] | 8.11 ± 0.8 | 40.5 ± 4.3 | – | 2.95 | – |
| CNC[C@@H]1C[C@]1(C(=O)OC)c1ccc(Cl)c(Cl)c1 [HD-327, (1R,2R)-methyl 1-(3,4-dichlorophenyl)-2-((methylamino)methyl)cyclopropanecarboxylate] | 0.31 ± 0.01 | 2.42 ± 0.31 | – | 2.95 | – |
| CNC[C@H]1C[C@@]1(C(=O)OC)c1ccc(Br)c(Br)c1 [HD-328, (1S,2S)-methyl 1-(3,4-dibromophenyl)-2-((methylamino)methyl)cyclopropanecarboxylate] | 4.57 ± 0.66 | 18.4 ± 2.5 | 87.9 ± 9.5 | 3.17 | – |
| CNC[C@@H]1C[C@]1(C(=O)OC)c1ccc(Br)c(Br)c1 [HD-329, (1R,2R)-methyl 1-(3,4-dibromophenyl)-2-((methylamino)methyl)cyclopropanecarboxylate] | 0.62 ± 0.12 | 1.71 ± 0.05 | 35.2 ± 4.6 | 3.17 | – |
| CNC[C@H]1C[C@@]1(C(=O)OC)c1ccc2ccccc2c1 [HD-330, (1S,2S)-methyl 2-((methylamino)methyl)-1-(naphthalen-2-yl)cyclopropanecarboxylate] | 16.4 ± 0.52 | – | 313 ± 55 | 2.82 | Ki [2]: 27 ± 3.4 nM |
| CNC[C@@H]1C[C@]1(C(=O)OC)c1ccc2ccccc2c1 [HD-331, (1R,2R)-methyl 2-((methylamino)methyl)-1-(naphthalen-2-yl)cyclopropanecarboxylate] | 10.4 ± 0.89 | – | 320 ± 51 | 2.82 | Ki [2]: 15 ± 2.8 nM |
| CNC[C@H]1C[C@@]1(C(=O)OC)c1ccc(-c2ccccc2)cc1 [HD-332, (1S,2S)-methyl 1-([1,1′-biphenyl]-4-yl)-2-((methylamino)methyl)cyclopropanecarboxylate] | > 10000 | 79.8 ± 21 | – | 3.54 | – |
| CNC[C@@H]1C[C@]1(C(=O)OC)c1ccc(-c2ccccc2)cc1 [HD-333, (1R,2R)-methyl 1-([1,1′-biphenyl]-4-yl)-2-((methylamino)methyl)cyclopropanecarboxylate] | 86.6 ± 19 | 2.69 ± 0.62 | – | 3.54 | – |
